Consider 28 compounds from patent US11345676B2, “Apoptosis signal-regulating kinase 1 (ASK 1) inhibitor compounds” (PHARMAKEA, INC., priority 2017, dated 2022).

Counter-ions that a name gives are not always drawn.

The target of the test is ASK1 (Homo sapiens (Human), UniProt Q99683). As to the kind of experiment: Human ASK1 ADP-Glo kinase assay. Format: biochemical. Particulars: recombinant ASK1 (amino acids 649-946), 50 μM ATP, MBP substrate. As to the method: Example B-1: Human ASK1 ADP-Glo Assay
Chain of ASK1 (Q99683 649-946): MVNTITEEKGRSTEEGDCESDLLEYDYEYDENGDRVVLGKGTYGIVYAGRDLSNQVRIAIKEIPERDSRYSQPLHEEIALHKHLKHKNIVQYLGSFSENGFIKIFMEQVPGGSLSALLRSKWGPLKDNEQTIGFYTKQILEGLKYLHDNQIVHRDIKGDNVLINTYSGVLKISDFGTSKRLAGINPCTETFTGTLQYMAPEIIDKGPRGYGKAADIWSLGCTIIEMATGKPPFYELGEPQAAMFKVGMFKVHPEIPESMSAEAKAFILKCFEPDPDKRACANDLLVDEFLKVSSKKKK
The ability of test compounds to inhibit ASK1 kinase activity was determined using the luminescent ADP-Glo™ Kinase Assay and Myelin Basic Protein (MBP) as a substrate (Promega Corporation, Madison, Wis.). During the kinase reaction, ASK1 utilizes ATP and generates ADP. The remaining ATP is then depleted by addition of the ADP-Glo™ reagent which also terminates the reaction. Subsequent addition of the Kinase Detection Reagent converts the ADP that was produced during the kinase reaction to ATP, and this newly synthesized ATP is converted to light using the luciferase/luciferin reactions. The assay was performed according to the manufacturer's instructions. Briefly, purified, recombinant ASK1 (amino acids 649-946) (10-20 ng/well) was added to a 384-well, F bottom, small volume, HIbase, white plate (Greiner Bio-One, Monroe, N.C. #784075) containing 1-2 μL 5× test compound or vehicle control (diluted 1:20 from a 100% DMSO stock solution into 1× Reaction Buffer A). The enzyme was allowed to pre-incubate with test compound from 15-120 min at 30° C. before the addition of the ATP/substrate mix (final concentrations of 50 μM ATP+250 ng MBP in 1× Reaction Buffer A). The mixture was then incubated at room temperature for 40 min before the addition of ADP-Glo™ reagent and a second 40 minute room temperature incubation. Following the addition of the Kinase Detection Reagent, the plate was incubated for an additional 40 min at room temperature before reading luminescence on a FlexStation 3 (Molecular Devices, Sunnyvale, Calif.). Maximum activity was determined from wells treated with vehicle and was set to 100% and minimum activity was determined from wells containing no enzyme and this was set to 0%. Percent inhibition was calculated relative to the controls and the data graphed in Collaborative Drug Discovery (CDD) Vault (Burlingame, Calif.).
In general terms: ADP-Glo first removes unused ATP, then detects ADP through luciferase.
As usually defined, the IC50 is the concentration that gives 50% inhibition. On to `CC(C)n1cnnc1-c1cccc(NC(=O)c2cccc(OCc3ccccc3)c2)n1` [Compound 1-179, 3-(Benzyloxy)-N-(6-(4-isopropyl-4H-1,2,4-triazol-3-yl)pyridin-2-yl)benzamide], for which the IC50 is less than 300 nM.
As for `CC(C)n1cnnc1-c1cccc(NC(=O)c2cc(NC(=O)c3cccnc3)ccc2F)n1` [Compound 1-308, N-(4-Fluoro-3-((6-(4-isopropyl-4H-1,2,4-triazol-3-yl)pyridin-2-yl)carbamoyl)phenyl)nicotinamide hydrochloride], the figure is less than 300 nM.
Turning to `CC(C)n1cnnc1-c1cccc(NC(=O)c2cc(NC(=O)c3ccc(Br)cn3)ccc2F)n1` [Compound 1-311, 5-Bromo-N-(4-fluoro-3-((6-(4-isopropyl-4H-1,2,4-triazol-3-yl)pyridin-2-yl)carbamoyl)phenyl)picolinamide hydrochloride], the IC50 is less than 300 nM.
As for `CC(C)n1cnnc1-c1cccc(NC(=O)c2cccc(OCc3cccnc3)c2)n1` [Compound 1-181, N-(6-(4-Isopropyl-4H-1,2,4-triazol-3-yl)pyridin-2-yl)-3-(pyridin-3-ylmethoxy)benzamide hydrochloride], the figure is less than 300 nM; as for `CC(C)n1cnnc1-c1cccc(NC(=O)c2cc(NC(=O)c3ccccn3)ccc2F)n1` [Compound 1-307, N-(4-Fluoro-3-((6-(4-isopropyl-4H-1,2,4-triazol-3-yl)pyridin-2-yl)carbamoyl)phenyl)picolinamide hydrochloride], less than 300 nM.
As for `CC(C)n1cnnc1-c1cccc(NC(=O)c2cccc(Oc3cc(C#N)cc(C(F)(F)F)n3)c2)n1` [Compound 1-23, 3-((4-Cyano-6-(trifluoromethyl)pyridin-2-yl)oxy)-N-(6-(4-isopropyl-4H-1,2,4-triazol-3-yl)pyridin-2-yl)benzamide], the 50% inhibitory concentration (IC50) was less than 300 nM.
Turning to `O=C(Nc1ccc(F)c(C(=O)Nc2cccc(-c3nncn3C(CF)CF)n2)c1)c1ccccc1` [Compound 1-340, 5-Benzamido-N-(6-(4-(1,3-difluoropropan-2-yl)-4H-1,2,4-triazol-3-yl)pyridin-2-yl)-2-fluorobenzamide hydrochloride], the half-maximal inhibitory concentration (IC50) is less than 300 nM.
With `CC(C)n1cnnc1-c1cccc(NC(=O)c2cc(Oc3ccc(Br)cn3)ccc2F)n1` [Compound 1-337, 5-((5-Bromopyridin-2-yl)oxy)-2-fluoro-N-(6-(4-isopropyl-4H-1,2,4-triazol-3-yl)pyridin-2-yl)benzamide hydrochloride], the half-inhibitory concentration (IC50) is 300 to 1000 nM.
Regarding `CC(C)n1cnnc1-c1cccc(NC(=O)c2cc(Oc3ccncn3)ccc2F)n1` [Compound 1-217, 2-Fluoro-N-(6-(4-isopropyl-4H-1,2,4-triazol-3-yl)pyridin-2-yl)-5-(pyrimidin-4-yloxy)benzamide hydrochloride], the half-maximal inhibitory concentration (IC50) is less than 300 nM.
As for `CC(C)n1cnnc1-c1cccc(NC(=O)c2cccc(Oc3cc(C(=O)O)cc(C(F)(F)F)n3)c2)n1` [Compound 1-24, 2-(3-((6-(4-Isopropyl-4H-1,2,4-triazol-3-yl)pyridin-2-yl)carbamoyl)phenoxy)-6-(trifluoromethyl)isonicotinic acid trifluoroacetate], the figure is 300 to 1000 nM.
With `CC(C)n1cnnc1-c1cccc(NC(=O)c2cc(Oc3cccnc3)ccc2F)n1` [Compound 1-211, 2-Fluoro-N-(6-(4-isopropyl-4H-1,2,4-triazol-3-yl)pyridin-2-yl)-5-(pyridin-3-yloxy)benzamide hydrochloride], the IC50 was less than 300 nM.
As for `CC(C)n1cnnc1-c1cccc(NC(=O)c2cc(NC(=O)c3cc(CN)ccn3)ccc2F)n1` [Compound 1-332, 4-(Aminomethyl)-N-(4-fluoro-3-((6-(4-isopropyl-4H-1,2,4-triazol-3-yl)pyridin-2-yl)carbamoyl)phenyl)picolinamide hydrochloride], the figure is less than 300 nM.
Consider `CC(C)n1cnnc1-c1cccc(NC(=O)c2cc(NC(=O)c3ccc(F)c(F)c3)ccc2F)n1` [Compound 1-334, 5-(3,4-Difluorobenzamido)-2-fluoro-N-(6-(4-isopropyl-4H-1,2,4-triazol-3-yl)pyridin-2-yl)benzamide hydrochloride], for which the IC50 is less than 300 nM.
For `CC(C)n1cnnc1-c1cccc(NC(=O)c2cc(Oc3cccc(Br)n3)ccc2F)n1` [Compound 1-336, 5-((6-Bromopyridin-2-yl)oxy)-2-fluoro-N-(6-(4-isopropyl-4H-1,2,4-triazol-3-yl)pyridin-2-yl)benzamide hydrochloride], the concentration for half-maximal inhibition (IC50) was less than 300 nM.
As for `C[C@H](CO)n1cnnc1-c1cccc(NC(=O)c2cc(NC(=O)c3ccccc3)ccc2F)n1` [Compound 1-341, (R)-5-Benzamido-2-fluoro-N-(6-(4-(1-hydroxypropan-2-yl)-4H-1,2,4-triazol-3-yl)pyridin-2-yl)benzamide], the figure is less than 300 nM; as for `CC(C)n1cnnc1-c1cccc(NC(=O)c2cc(NC(=O)c3ccc(C(=O)O)cc3)ccc2F)n1` [Compound 1-335, 4-((4-Fluoro-3-((6-(4-isopropyl-4H-1,2,4-triazol-3-yl)pyridin-2-yl)carbamoyl)phenyl)carbamoyl)benzoic acid sodium salt], less than 300 nM; as for `CC(C)n1cnnc1-c1cccc(NC(=O)c2cc(Oc3ccc(C4CC4)cn3)ccc2F)n1` [Compound 1-227, 5-((5-Cyclopropylpyridin-2-yl)oxy)-2-fluoro-N-(6-(4-isopropyl-4H-1,2,4-triazol-3-yl)pyridin-2-yl)benzamide hydrochloride], less than 300 nM.
`CC(C)n1cnnc1-c1cccc(NC(=O)c2cc(NC(=O)c3ccccc3)ccc2F)n1` [Compound 1-305, 5-Benzamido-2-fluoro-N-(6-(4-isopropyl-4H-1,2,4-triazol-3-yl)pyridin-2-yl) benzamide hydrochloride]: the concentration for half-maximal inhibition (IC50) was less than 300 nM.
To `CC(C)n1cnnc1-c1cccc(NC(=O)c2cc(Oc3ccccn3)ccc2F)n1` [Compound 1-210, 2-Fluoro-N-(6-(4-isopropyl-4H-1,2,4-triazol-3-yl)pyridin-2-yl)-5-(pyridin-2-yloxy)benzamide hydrochloride] belongs less than 300 nM; to `CC(C)n1cnnc1-c1cccc(NC(=O)c2cc(Oc3cccc(N4CCCC4)n3)ccc2F)n1` [Compound 1-225, 2-Fluoro-N-(6-(4-isopropyl-4H-1,2,4-triazol-3-yl)pyridin-2-yl)-5-((6-(pyrrolidin-1-yl)pyridin-2-yl)oxy)benzamide hydrochloride], 300 to 1000 nM.
As for `CC(C)(C)OC(=O)NCc1cc(Oc2ccnc(C(=O)Nc3cccc(-c4nncn4C4CC4)n3)c2)nc(C(F)(F)F)c1` [Compound 1-329, tert-Butyl ((2-((2-((6-(4-cyclopropyl-4H-1,2,4-triazol-3-yl)pyridin-2-yl)carbamoyl)pyridin-4-yl)oxy)-6-(trifluoromethyl)pyridin-4-yl)methyl)carbamate], the figure is 300 to 1000 nM; as for `CC(C)n1cnnc1-c1cccc(NC(=O)c2cc(Oc3cccc(C(F)(F)F)n3)ccc2F)c1` [Compound 1-223, 2-Fluoro-N-(3-(4-isopropyl-4H-1,2,4-triazol-3-yl)phenyl)-5-((6-(trifluoromethyl)pyridin-2-yl)oxy)benzamide hydrochloride], less than 300 nM; as for `C[C@H](CO)n1cnnc1-c1cccc(NC(=O)c2cc(NCc3ccc(F)cc3)ccc2F)n1` [Compound 1-343, (R)-2-Fluoro-5-((4-fluorobenzyl)amino)-N-(6-(4-(1-hydroxypropan-2-yl)-4H-1,2,4-triazol-3-yl)pyridin-2-yl)benzamide hydrochloride], less than 300 nM.
Regarding `CC(C)n1cnnc1-c1cccc(NC(=O)c2cc(NC(=O)c3ncccn3)ccc2F)n1` [Compound 1-314, N-(4-Fluoro-3-((6-(4-isopropyl-4H-1,2,4-triazol-3-yl)pyridin-2-yl)carbamoyl)phenyl)pyrimidine-2-carboxamide trifluoroacetate], the 50% inhibitory concentration (IC50) was less than 300 nM.
As to `CC(C)n1cnnc1-c1cccc(NC(=O)c2cc(Oc3cccc(C4CC4)n3)ccc2F)n1` [Compound 1-213, 5-((6-Cyclopropylpyridin-2-yl)oxy)-2-fluoro-N-(6-(4-isopropyl-4H-1,2,4-triazol-3-yl)pyridin-2-yl)benzamide trifluoroacetate], the IC50 is less than 300 nM.
As for `CC(C)n1cnnc1-c1cccc(NC(=O)c2cc(NC(=O)c3ccncc3)ccc2F)n1` [Compound 1-309, N-(4-Fluoro-3-((6-(4-isopropyl-4H-1,2,4-triazol-3-yl)pyridin-2-yl)carbamoyl)phenyl)isonicotinamide dihydrochloride], the figure is less than 300 nM.
To `CC(C)n1cnnc1-c1cccc(NC(=O)c2cc(NC(=O)c3cncnc3)ccc2F)n1` [Compound 1-313, N-(4-Fluoro-3-((6-(4-isopropyl-4H-1,2,4-triazol-3-yl)pyridin-2-yl)carbamoyl)phenyl)pyrimidine-5-carboxamide hydrochloride] belongs less than 300 nM; to `C[C@H](CO)n1cnnc1-c1cccc(NC(=O)c2cc(Nc3ccc(F)cc3)ccc2F)n1` [Compound 1-342, (R)-2-Fluoro-5-((4-fluorophenyl)amino)-N-(6-(4-(1-hydroxypropan-2-yl)-4H-1,2,4-triazol-3-yl)pyridin-2-yl)benzamide], 300 to 1000 nM.
